Test results published in patent US20230117034A1, “PYRAZOLOTRIAZINES” (Bayer Aktiengesellschaft, priority 2019, published 2023).

Assays:
CDK12/CycK = CDK12/CycK (Homo sapiens, UniProt Q9NYV4); assay: CDK12/CycK high ATP kinase assay (TR-FRET, 2 mM ATP); assay type: biochemical; conditions: 2 mM ATP (high ATP); median; read-out: CDK12/CyclinK, 2 mM ATP (high ATP), IC50-[mol/l] (median)
Description: In the context of the present invention, the term “IC50 CDK12 hATP” refers to the IC50 values obtained according to the assay described in this section (2.2) herein below, i.e. the IC50 values for the inhibition of CDK12 at high (2 mM) ATP.
CDK12/CycK-inhibitory activity of compounds of the present invention at 2 millimol/L adenosine-tri-phosphate (ATP) was quantified employing the TR-FRET (TR-FRET=Time Resolved Fluorescence Energy Transfer) based CDK12/CycK activity inhibition assay as described in the following paragraphs.
A complex of human recombinant CDK12 and human recombinant CycK (both N-terminally His-tagged, expression and purification as described above) was used as enzyme. As substrate for the kinase reaction biotinylated peptide biotin-Ahx-KFELLPTPPLSPSRRSGL (C-terminus in amid form) was used which can be purchased e.g. form the company Biosyntan (Berlin-Buch, Germany).
For the assay 50 nanoL of a 100 fold concentrated solution of the test compound in DMSO was pipetted into either a black low volume 384 well microtiter plate or a black 1536 well microtiter plate (both Greiner Bio-One, Frickenhausen, Germany), 2 microL of a solution of CDK12/CycK in aqueous assay buffer [25 millimol/L HEPES pH 7.5, 20 millimol/L MgCl2, 5 millimol/L β-glycerophosphate, 2 millimol/L EGTA, 1.0 millimol/L dithiothreitol, 0.01% (v/v) Nonidet-P40 (Sigma), 0.01% (w/v) bovine serum albumin] were added and the mixture was incubated for 15 min at 22° C. to allow pre-binding of the test compounds to the enzyme before the start of the kinase reaction. Then the kinase reaction was started by the addition of 3 microL of a solution ATP (3.33 millimol/L=>final conc. in the 5 microL assay volume is 2 millimol/L) and substrate (1.67 micromol/L=>final conc. in the 5 microL assay volume is 1 micromol/L) in assay buffer and the resulting mixture was incubated for a reaction time of 60 min at 22° C. The concentration of CDK12/CycK was adjusted depending of the activity of the enzyme lot and was chosen appropriate to have the assay in the linear range, typical concentrations were about 0.75 nanomol/L. The reaction was stopped by the addition of 3 microL of a solution of TR-FRET detection reagents (125 nanomol/L streptavidine-XL665 [Cisbio Bioassays, Codolet, France] and 0.67 nanomol/L anti-Phospho-c-Myc (Ser 62) (E1J4K)-antibody from Cell Signalling [#13748] and 2 nanomol/L LANCE EU-W1024 labeled anti-rabbit IgG antibody [Perkin-Elmer, product no. 0083]) in an aqueous EDTA-solution (133 millimol/L EDTA, 0.27% (w/v) bovine serum albumin in 66.7 millimol/L HEPES pH 7.5).
The resulting mixture was incubated 1 h at 22° C. to allow the formation of complex between the phosphorylated biotinylated peptide and the detection reagents. Subsequently the amount of phosphorylated substrate was evaluated by measurement of the resonance energy transfer from the Eu-chelate to the streptavidine-XL. Therefore, the fluorescence emissions at 620 nm and 665 nm after excitation at 350 nm was measured in a TR-FRET reader, e.g. a Pherastar FS (BMG Labtechnologies, Offenburg, Germany) or a Viewlux (Perkin-Elmer). The ratio of the emissions at 665 nm and at […] was taken as the measure for the amount of phosphorylated substrate. The data were normalised (enzyme reaction without inhibitor=0% inhibition, all other assay components but no enzyme=100% inhibition).

[1] = tested on: BRCA1 mRNA expression in MDA-MB-231 cells; assay: qRT-PCR assay: BRCA1 mRNA expression in MDA-MB-231; assay type: cell-based, human; conditions: Homo sapiens, MDA-MB-231, Inhibition of BRCA1 mRNA expression in MDA-MB-231 cells; median; read-out: RTqPCR-MDA-MB-231, IC50, BRCA1 (median)
Description: 3. qRT-PCR Assay: BRCA, ATR, MCL1 in MDA-MB-231, CAL-120
Tissue cultured human MDA-MB-231 human breast cancer cells were plated in 500 microL per well at 200,000 cells/well in a 24 well microtiter plate. After 24 h, the cells were exposed continuously for 24 h to test substances (substances were added with Tecan HP 0300 Dispenser). RNA was prepared using Qiagen RNeasy MiniKit (#74106), RNA was quantified using a NanoDrop Equipment, and 600 nano gamms of RNA was coverted to cDNA using a SuperScript VILO kit (Thermofisher #11755050) followed by qPCR amplification. BRCA1 and ATR gene expression was measured by RT-qPCR and normalised to GAPDH housekeeping gene expression. qPCR primer sets have been purchased from Thermo Fisher Scientific/Applied Biosystems: BRCA1, #Hs 01556193; ATR, #Hs 00992123; GAPDH, #Hs 03929097.

CDK12/CycK, sequence (Q9NYV4 with tags, fused parts or gaps): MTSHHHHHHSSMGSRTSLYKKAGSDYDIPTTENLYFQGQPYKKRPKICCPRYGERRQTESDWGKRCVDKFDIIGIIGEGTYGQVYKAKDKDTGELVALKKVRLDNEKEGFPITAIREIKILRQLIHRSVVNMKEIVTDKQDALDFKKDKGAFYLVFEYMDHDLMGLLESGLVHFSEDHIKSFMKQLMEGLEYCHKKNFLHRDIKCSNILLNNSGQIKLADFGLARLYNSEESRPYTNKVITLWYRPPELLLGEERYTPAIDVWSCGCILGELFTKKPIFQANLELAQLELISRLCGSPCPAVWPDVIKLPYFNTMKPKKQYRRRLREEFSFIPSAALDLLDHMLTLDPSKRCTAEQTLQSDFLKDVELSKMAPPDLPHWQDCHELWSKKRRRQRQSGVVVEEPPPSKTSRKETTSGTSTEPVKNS
CDK12/CycK, sequence (O75909 1-300 partner limits assumed): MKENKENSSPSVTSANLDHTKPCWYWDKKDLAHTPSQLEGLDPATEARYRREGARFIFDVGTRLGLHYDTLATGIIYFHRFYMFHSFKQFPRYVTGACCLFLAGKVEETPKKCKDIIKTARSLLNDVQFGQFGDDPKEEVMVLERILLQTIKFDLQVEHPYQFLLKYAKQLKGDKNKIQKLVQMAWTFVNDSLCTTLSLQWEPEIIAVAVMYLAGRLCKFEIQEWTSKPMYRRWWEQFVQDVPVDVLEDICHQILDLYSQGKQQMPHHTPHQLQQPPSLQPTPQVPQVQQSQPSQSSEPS

| IC50 (CDK12/CycK) [µM] | IC50 [1] [µM] | SMILES |
| --- | --- | --- |
| > 20 | – | Brc1cnn2c(NCc3nc4ccccc4[nH]3)nc(N3CCN(C4CC4)CC3)nc12 [Example 138, N-[(1H-benzimidazol-2-yl)methyl]-8-bromo-2-(4-cyclopropylpiperazin-1-yl)pyrazolo[1,5-a][1,3,5]triazin-4-amine] |
| 6.09 | 0.0462 | O=S1(=O)CCN(c2nc(NCc3nc4ccccc4[nH]3)n3ncc(Br)c3n2)CC1 [Example 166, 4-(4-{[(1H-benzimidazol-2-yl)methyl]amino}-8-bromopyrazolo[1,5-a][1,3,5]triazin-2-yl)-1 lambda^6-thiomorpholine-1,1-dione] |
| > 20 | 0.255 | CC(C)c1cnn2c(NCc3nc4ccccc4[nH]3)nc(N3CC4(COC4)C3)nc12 [Example 9, N-[(1H-benzimidazol-2-yl)methyl]-2-(2-oxa-6-azaspiro[3.3]heptan-6-yl)-8-(propan-2-yl)pyrazolo[1,5-a][1,3,5]triazin-4-amine] |
| 11.1 | – | CN1CCN(c2nc(NCc3nc4ccccc4[nH]3)n3ncc(Br)c3n2)CC1=O [Example 131, 4-(4-{[(1H-benzimidazol-2-yl)methyl]amino}-8-bromopyrazolo[1,5-a][1,3,5]triazin-2-yl)-1-methylpiperazin-2-one] |
| 11.6 | – | CC(=O)NCCCc1cccc2[nH]c(CNc3nc(N4CCOCC4)nc4c(Br)cnn34)nc12.O=CO [Example 115, formic acid-N-{3-[2-({[8-bromo-2-(morpholin-4-yl)pyrazolo[1,5-a][1,3,5]triazin-4-yl]amino}methyl)-1H-benzimidazol-4-yl]propyl}acetamide (1/1)] |
| 12.6 | 0.19 | N=S1(=O)CCN(c2nc(NCc3nc4ccccc4[nH]3)n3ncc(Br)c3n2)CC1 [Example 145, 4-(4-{[(1H-benzimidazol-2-yl)methyl]amino}-8-bromopyrazolo[1,5-a][1,3,5]triazin-2-yl)-1-imino-1lambda^6-thiomorpholin-1-one] |
| > 20 | 0.147 | Fc1ccccc1-c1cnn2c(NCc3nc4ccccc4[nH]3)nc(N3CCOCC3)nc12 [Example 95, N-[(1H-benzimidazol-2-yl)methyl]-8-(2-fluorophenyl)-2-(morpholin-4-yl)pyrazolo[1,5-a][1,3,5]triazin-4-amine] |

The remaining lines, values behind:

| SMILES | IC50 (CDK12/CycK) [µM] | IC50 [1] [µM] |
| --- | --- | --- |
| FC(F)(F)CN1CCN(c2nc(NCc3nc4ccccc4[nH]3)n3ncc(Br)c3n2)CC1 [Example 139, N-[(1H-benzimidazol-2-yl)methyl]-8-bromo-2-[4-(2,2,2-trifluoroethyl)piperazin-1-yl]pyrazolo[1,5-a][1,3,5]triazin-4-amine] | 15.3 | – |
| CC(C)c1cnn2c(NCc3nc4ccccc4[nH]3)nc(N3CCOC[C@H]3C)nc12 [Example 7, N-[(1H-benzimidazol-2-yl)methyl]-2-[(3R)-3-methylmorpholin-4-yl]-8-(propan-2-yl)pyrazolo[1,5-a][1,3,5]triazin-4-amine] | 10.2 | 0.203 |
| Brc1cnn2c(NCc3nc4ccccc4[nH]3)nc(N3CCN4CCC[C@@H]4C3)nc12 [Example 149, N-[(1H-benzimidazol-2-yl)methyl]-8-bromo-2-[(8aR)-hexahydropyrrolo[1,2-a]pyrazin-2 (1 H)-yl]pyrazolo[1,5-a][1,3,5]triazin-4-amine] | 6.22 | 0.148 |
| NCCCc1cccc2[nH]c(CNc3nc(N4CCOCC4)nc4c(Br)cnn34)nc12.O=CO [Example 114, formic acid-N-{[4-(3-aminopropyl)-1H-benzimidazol-2-yl]methyl}-8-bromo-2-(morpholin-4-yl)pyrazolo[1,5-a][1,3,5]triazin-4-amine (1/1)] | 8.13 | – |
| CN1CCN(c2nc(NCc3nnc(-c4ccccc4)[nH]3)n3ncc(Br)c3n2)CC1=O [Example 121, 4-(8-bromo-4-{[(5-phenyl-4H-1,2,4-triazol-3-yl)methyl]amino}pyrazolo[1,5-a][1,3,5]triazin-2-yl)-1-methylpiperazin-2-one] | 7.47 | 0.344 |
| NCCc1cccc2[nH]c(CNc3nc(N4CCOCC4)nc4c(Br)cnn34)nc12 [Example 112, N-{[7-(2-aminoethyl)-1H-benzimidazol-2-yl]methyl}-8-bromo-2-(morpholin-4-yl)pyrazolo[1,5-a][1,3,5]triazin-4-amine] | 6.68 | 0.0237 |
| [O-][S+]1CCN(c2nc(NCc3nc4ccccc4[nH]3)n3ncc(Br)c3n2)CC1 [Example 144, 4-(4-{[(1H-benzimidazol-2-yl)methyl]amino}-8-bromopyrazolo[1,5-a][1,3,5]triazin-2-yl)-1lambda^4-thiomorpholin-1-one] | 3.72 | 0.0833 |
| C[C@@H]1CCCCN1c1nc(NCc2nc3ccccc3[nH]2)n2ncc(Br)c2n1 [Example 140, N-[(1H-benzimidazol-2-yl)methyl]-8-bromo-2-[(2R)-2-methylpiperidin-1-yl]pyrazolo[1,5-a][1,3,5]triazin-4-amine] | 8.15 | – |
| NCCc1ccc2[nH]c(CNc3nc(N4CCOCC4)nc4c(Br)cnn34)nc2c1.O=CO [Example 113, formic acid-N-{[5-(2-aminoethyl)-1H-benzimidazol-2-yl]methyl}-8-bromo-2-(morpholin-4-yl)pyrazolo[1,5-a][1,3,5]triazin-4-amine (1/1)] | 1.71 | 0.0211 |
| CN1CCN(c2nc(NCc3nc4ccccc4[nH]3)n3ncc(Br)c3n2)C(CO)C1 (stereo not shown) [Example 155, [1-[4-(1H-benzimidazol-2-ylmethylamino)-8-bromo-pyrazolo[1,5-a][1,3,5]triazin-2-yl]-4-methyl-piperazin-2-yl]methanol] | 3.74 | – |
| c1ccc(-c2cnn3c(NCc4nc5ccccc5[nH]4)nc(N4CCOCC4)nc23)cc1 [Example 104, N-[(1H-benzimidazol-2-yl)methyl]-2-(morpholin-4-yl)-8-phenylpyrazolo[1,5-a][1,3,5]triazin-4-amine] | > 20 | 0.03 |
| Clc1cccc(-c2cnn3c(NCc4nc5ccccc5[nH]4)nc(N4CCOCC4)nc23)c1 [Example 107, N-[(1H-benzimidazol-2-yl)methyl]-8-(3-chlorophenyl)-2-(morpholin-4-yl)pyrazolo[1,5-a][1,3,5]triazin-4-amine] | > 20 | 0.151 |
| OCC1CCN1c1nc(NCc2nc3ccccc3[nH]2)n2ncc(Br)c2n1 (stereo not shown) [Example 147, [1-[4-(1H-benzimidazol-2-ylmethylamino)-8-bromo-pyrazolo[1,5-a][1,3,5]triazin-2-yl]azetidin-2-yl]methanol] | 4.97 | 0.0767 |
| Brc1cnn2c(NCc3nc4ccccc4[nH]3)nc(N3CCC3)nc12 [Example 143, 2-(azetidin-1-yl)-N-[(1H-benzimidazol-2-yl)methyl]-8-bromopyrazolo[1,5-a][1,3,5]triazin-4-amine] | > 20 | – |
